# Measurements taken from patent publication US4089965A, “Thiazolylphenylguanidines as antirhinovirus agents” (American Cyanamid Company, priority 1977, dated 1978).
# Experiments:
# [1] = test system: Rhinovirus Serotype 1B; experiment: Virus Yield Reduction Test; format: cell-based; conditions: for Virus yield: HeLa
# [2] = test system: rhinovirus 32; format: in vivo, human; conditions: neutralization test, rhinovirus type 32
compound,measurement,setting,value
N=C(Nc1ccccc1)Nc1nc(-c2ccccc2)cs1 [1-(4-phenyl-2-thiazolyl)-3-phenylguanidine],suppression of virus yield,"[1]; 24 hours, cultures treated with 0.4 to 0.8 mcg/ml",1-2 logs
same,Virus yield,"[1]; 0.4 mcg/ml, 0 Hour to +6 Hour, 24 Hours, no drug 7.0",5.2 Plaque-Forming Units/ml. (Log
same,Virus yield,"[1]; 0.4 mcg/ml, 0 Hour to +6 Hour, 48 Hours, no drug 7.0",5.8 Plaque-Forming Units/ml. (Log
same,Virus yield,"[1]; 0.4 mcg/ml, +1 Hour to +7 Hour, 24 Hours, no drug 7.0",6.4 Plaque-Forming Units/ml. (Log
same,Virus yield,"[1]; 0.4 mcg/ml, +1 Hour to +7 Hour, 48 Hours, no drug 7.2",7.1 Plaque-Forming Units/ml. (Log
same,Virus yield,"[1]; 0.8 mcg/ml, 0 Hour to +6 Hour, 24 Hours, no drug 7.0",5.7 Plaque-Forming Units/ml. (Log
same,Virus yield,"[1]; 0.8 mcg/ml, 0 Hour to +6 Hour, 48 Hours, no drug 7.0",6.3 Plaque-Forming Units/ml. (Log
same,Virus yield,"[1]; 0.8 mcg/ml, +1 Hour to +7 Hour, 24 Hours, no drug 7.0",6.0 Plaque-Forming Units/ml. (Log
same,Virus yield,"[1]; 0.8 mcg/ml, +1 Hour to +7 Hour, 48 Hours, no drug 7.2",7.4 Plaque-Forming Units/ml. (Log
same,Virus yield,"[1]; 1.6 mcg/ml, 0 Hour to +6 Hour, 24 Hours, no drug 7.0",5.5 Plaque-Forming Units/ml. (Log
same,Virus yield,"[1]; 1.6 mcg/ml, 0 Hour to +6 Hour, 48 Hours, no drug 7.0",6.2 Plaque-Forming Units/ml. (Log
same,Virus yield,"[1]; 1.6 mcg/ml, +1 Hour to +7 Hour, 24 Hours, no drug 7.0",5.4 Plaque-Forming Units/ml. (Log
same,Virus yield,"[1]; 1.6 mcg/ml, +1 Hour to +7 Hour, 48 Hours, no drug 7.2",6.6 Plaque-Forming Units/ml. (Log
same,Virus yield,"[1]; 3.1 mcg/ml, 0 Hour to +6 Hour, 24 Hours, no drug 7.0",5.5 Plaque-Forming Units/ml. (Log
same,Virus yield,"[1]; 3.1 mcg/ml, 0 Hour to +6 Hour, 48 Hours, no drug 7.0",6.1 Plaque-Forming Units/ml. (Log
same,Virus yield,"[1]; 3.1 mcg/ml, +1 Hour to +7 Hour, 24 Hours, no drug 7.0",4.7 Plaque-Forming Units/ml. (Log
same,Virus yield,"[1]; 3.1 mcg/ml, +1 Hour to +7 Hour, 48 Hours, no drug 7.2",6.3 Plaque-Forming Units/ml. (Log
same,Virus yield,"[1]; 6.2 mcg/ml, 0 Hour to +6 Hour, 24 Hours, no drug 7.0",5.8 Plaque-Forming Units/ml. (Log
same,Virus yield,"[1]; 6.2 mcg/ml, 0 Hour to +6 Hour, 48 Hours, no drug 7.0",6.1 Plaque-Forming Units/ml. (Log
same,Virus yield,"[1]; 6.2 mcg/ml, +1 Hour to +7 Hour, 24 Hours, no drug 7.0",4.5 Plaque-Forming Units/ml. (Log
same,Virus yield,"[1]; 6.2 mcg/ml, +1 Hour to +7 Hour, 48 Hours, no drug 7.2",5.6 Plaque-Forming Units/ml. (Log
same,Virus yield,"[1]; 12.5 mcg/ml, +1 Hour to +7 Hour, 24 Hours, no drug 7.0",3.8 Plaque-Forming Units/ml. (Log
same,Virus yield,"[1]; 12.5 mcg/ml, +1 Hour to +7 Hour, 48 Hours, no drug 7.2",5.2 Plaque-Forming Units/ml. (Log
same,antibody response of the treated subject who became clinically infected,[2],no antibody response
